Assay results: patent US4486445A, “Justicidin insecticidal and antiviral compounds” (E. I. Du Pont de Nemours and Company, priority 1983, dated 1984)
In brackets after ≈: the same amount, converted by molar mass.

What was measured:
Aedes egypti larvae [1] = experiment: insecticidal activity against larvae of A. egypti in water; format: in vivo; conditions: Aedes; larvae of A. egypti in H2O; read-out: EC50 (effective kill concentration for 50% of the experimental larvae)
Description: (§1) The insecticidal activity of the crude acetone/water extracts of Justicia extensa, prepared according to the isolation procedure described previously, was tested against laboratory cultures of the mosquito species Aedes egypti (Linnaeus) and southern army worm (SAW) Spodoptera eridania (Cramer). Extracts of leaves, branches and roots were employed in each test.
In tests against larvae of A. egypti, 10 mg of the crude plant extract was thoroughly dispersed in 20 ml of water in a test tube to which 10 first instar larvae were added.

Spodoptera eridania = experiment: insecticidal and feeding inhibition test against southern army worm in pinto bean diet; format: in vivo
Description: as §1

[2] = test system: southern army worm (SAW) Spodoptera eridania; experiment: spray applied to SAW; format: in vivo
Description: When a spray containing 2.0 mg/ml purified Justicidin P in water was applied to SAW, 85% feeding inhibition but 0% kill was observed.

Herpes Type 1-strain VR3 = experiment: plaque formation inhibition, Herpes Type 1 in HeLa cells; format: cell-based
[3] = test system: Herpes Type 2-Alabama strain; experiment: plaque formation inhibition, Herpes Type 2 in HeLa cells; format: cell-based
HeLa cells = format: cell-based; conditions: 64 μg/ml to 1 μg/ml
[4] = test system: Human Rhino Virus (HRV-2); experiment: inhibition of HRV-2 in HeLa cells; format: cell-based, Human rhinovirus HRV-2; conditions: Rhinovirus A, 200 PFU
out-bred mice = experiment: in vivo oral toxicity in out-bred mice; conditions: orally, up to about 324 mg/kg
Description: (§2) In vivo toxicity studies of natural and synthetic Justicidin P produced mixed results. […] However, natural and synthetic Justicidin P were toxic to A/JAX inbred mice when administered orally at dosages of 200 and 100 mg/kg.

A/JAX inbred mice = experiment: in vivo oral toxicity in A/JAX inbred mice; conditions: orally, 200 and 100 mg/kg
Description: as §2

[5] = in vitro toxicity in MDCK cells; format: cell-based, Canine; conditions: dog
Description: In vitro toxicity studies of natural Justicidin P were conducted using Madin-Darby Canine Kidney (MDCK) cells and test concentrations ranging between 0.01 and 0.56 μg/ml. In these tests, Justicidin P was suspended in MEM, diluted, and suspended in a purified agar solution. Duplicate plates containing MDCK cell layers were washed twice with HBSS, overlayed with the test compound-agar solutions, and incubated at 34° C., 5% CO2 for 72 hours. At the conclusion of the incubation period, cell layers were stained with 1% crystal violet, rinsed with tap water, dried and visually inspected to determine toxicity.

IMR-90 cells = conditions: all concentrations tested
Aedes egypti larvae [6] = experiment: insecticidal activity against larvae of A. egypti in water; format: in vivo; conditions: lower concentrations
in vitro = conditions: human, diploid fibroblast cells

## COc1cc2c(OC)c3c(c(-c4ccc5c(c4)OCO5)c2cc1OC)C(=O)OC3OC (single isomer, unassigned) [Justicidin P (natural)]
Aedes egypti larvae [1]
  LC50: 0.05 µg/mL (≈ 0.118 µM)
Spodoptera eridania; 1 μg/gm in pinto bean diet
  feeding inhibition: 62%
Spodoptera eridania; 10 μg/gm in pinto bean diet
  feeding inhibition: 77%
Spodoptera eridania; 100 μg/gm in pinto bean diet
  feeding inhibition: 85%
Spodoptera eridania; Spodoptera eridania, 1 μg/gm in pinto bean diet, read-out: kill
  mortality at 1 µg/g: 20%
Spodoptera eridania; Spodoptera eridania, 10 μg/gm in pinto bean diet, read-out: kill
  mortality at 10 µg/g: 10%
Spodoptera eridania; Spodoptera eridania, 100 μg/gm in pinto bean diet, read-out: kill
  mortality at 100 µg/g: 60%
[2]; Spodoptera eridania, topical, read-out: kill
  mortality at 2000 µg/mL: 0%
[2]; spray containing 2.0 mg/ml in water
  feeding inhibition: 85%
Herpes Type 1-strain VR3; 0.004 μg/ml, HSV-1, HeLa
  Mean Plaques/Plate: 134
Herpes Type 1-strain VR3; 0.016 μg/ml, HSV-1, HeLa
  Mean Plaques/Plate: 117
Herpes Type 1-strain VR3; 0.063 μg/ml, HSV-1, HeLa
  Mean Plaques/Plate: 122
Herpes Type 1-strain VR3; 0.25 μg/ml, HSV-1, HeLa
  Mean Plaques/Plate: 87
Herpes Type 1-strain VR3; HeLa cells
  antiviral activity against Herpes Type 1: demonstrated antiviral activity
Herpes Type 1-strain VR3; Human alphaherpesvirus 1, 0.004 μg/ml, HSV-1, HeLa
  inhibition at 0.004 µg/mL: 0%
Herpes Type 1-strain VR3; Human alphaherpesvirus 1, 0.016 μg/ml, HSV-1, HeLa
  inhibition at 0.016 µg/mL: 6%
Herpes Type 1-strain VR3; Human alphaherpesvirus 1, 0.063 μg/ml, HSV-1, HeLa
  inhibition at 0.063 µg/mL: 2%
Herpes Type 1-strain VR3; Human alphaherpesvirus 1, 0.25 μg/ml, HSV-1, HeLa
  inhibition at 0.25 µg/mL: 31%
[3]; 0.004 μg/ml, HSV-2, HeLa
  Mean Plaques/Plate: 136
[3]; 0.016 μg/ml, HSV-2, HeLa
  Mean Plaques/Plate: 114
[3]; 0.063 μg/ml, HSV-2, HeLa
  Mean Plaques/Plate: 60
[3]; 0.25 μg/ml, HSV-2, HeLa
  Mean Plaques/Plate: 7
[3]; HeLa cells
  antiviral activity against Herpes Type 2: demonstrated antiviral activity
[3]; Human alphaherpesvirus 2, 0.004 μg/ml, HSV-2, HeLa
  inhibition at 0.004 µg/mL: 14%
[3]; Human alphaherpesvirus 2, 0.016 μg/ml, HSV-2, HeLa
  inhibition at 0.016 µg/mL: 28%
[3]; Human alphaherpesvirus 2, 0.063 μg/ml, HSV-2, HeLa
  inhibition at 0.063 µg/mL: 62%
[3]; Human alphaherpesvirus 2, 0.25 μg/ml, HSV-2, HeLa
  inhibition at 0.25 µg/mL: 96%
HeLa cells
  cytotoxicity: severe cytotoxicity
[4]; HRV2, 0.016 μg/ml
  inhibition at 0.016 µg/mL: 107%
[4]; HRV2, 0.08 μg/ml
  inhibition at 0.08 µg/mL: ≥ 100%
[4]; HRV2, 0.4 μg/ml
  inhibition at 0.4 µg/mL: ≥ 100%
[4]; HRV2, 2 μg/ml
  inhibition at 2 µg/mL: ≥ 100%
[4]; HRV2, 10 μg/ml
  inhibition at 10 µg/mL: 64%
out-bred mice
  in vivo toxicity: no toxicity was observed
A/JAX inbred mice
  in vivo toxicity: toxic
[5]; 0.01 μg/ml
  cytotoxicity at 72 h: 1%
[5]; 0.02 μg/ml
  cytotoxicity at 72 h: 5%
[5]; 0.05 μg/ml
  cytotoxicity at 72 h: 15%
[5]; 0.11 μg/ml
  cytotoxicity at 72 h: 30%
[5]; 0.25 μg/ml
  cytotoxicity at 72 h: 40%
[5]; 0.56 μg/ml
  cytotoxicity at 72 h: 70%
IMR-90 cells
  cytotoxicity: exhibited cytotoxicity at all concentrations tested
Aedes egypti larvae [6]
  insecticidal activity of purified fractions: insecticidal component of the J. extensa extracts
In vitro
  selectivity ratio: 10 to 60
